As usually defined, the IC50 is the point on the concentration scale where inhibition reaches its midpoint.

One data set addresses CHK1 (Homo sapiens (Human), UniProt O14757). Briefly: CHK1 inhibitory activity test (IMAP TR-FRET).
A further data set has as its target hERG current (Homo sapiens (Human), UniProt Q12809). Briefly: hERG current blocking test. On the technique in general: hERG is a cardiac potassium channel; its block is linked to QT prolongation.
The next data set deals with CYP3A4 (Homo sapiens (Human), UniProt P08684). Briefly: CYP3A4 MBI and enzyme inactivation clearance evaluation. It is filed as in vitro ADME. To be noted: human liver microsome, pre-incubation in the presence of NADPH. As for the experimental part: The effect and mode of inhibition of the test compound on CYP3A4 were evaluated using a human liver microsome as an enzyme source and midazolam or testosterone as a substrate. […] The IC50 value was calculated from a concentration plot.
CYP3A4, sequence (P08684 whole entry): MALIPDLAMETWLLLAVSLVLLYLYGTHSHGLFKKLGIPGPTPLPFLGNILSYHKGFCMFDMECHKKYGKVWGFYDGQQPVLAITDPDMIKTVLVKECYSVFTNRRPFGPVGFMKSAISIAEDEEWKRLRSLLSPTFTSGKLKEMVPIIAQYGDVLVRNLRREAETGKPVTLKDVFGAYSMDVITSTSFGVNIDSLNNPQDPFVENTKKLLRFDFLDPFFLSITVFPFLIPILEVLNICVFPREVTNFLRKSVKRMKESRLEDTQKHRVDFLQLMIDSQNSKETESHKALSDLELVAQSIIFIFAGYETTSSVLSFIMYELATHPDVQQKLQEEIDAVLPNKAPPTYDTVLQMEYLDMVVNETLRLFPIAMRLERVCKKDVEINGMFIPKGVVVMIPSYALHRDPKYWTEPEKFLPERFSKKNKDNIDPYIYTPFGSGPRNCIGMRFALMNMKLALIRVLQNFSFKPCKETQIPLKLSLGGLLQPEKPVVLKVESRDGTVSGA
In general terms: Liver microsomes are vesicles of endoplasmic reticulum, rich in cytochrome P450 enzymes.

The next data set deals with ES-2 cells. Briefly: Cell growth suppression experiment. It is filed as cell-based. As for the experimental part:
ES-2 cells were obtained from the American Type Culture Collection (ATCC). These cells were cultured at 37° C. in the presence of 5% CO2 in a 10% fetal bovine serum, 1% penicillin/streptomycin containing McCoy's 5a medium.
500 cells were seeded for each well in a 384-well plate, and the evaluated compound was added so that the final concentration of DMSO would be 0.1% to culture the cells for 2 days. After completion of the culture, the cell viability rate was calculated using CellTiter-Glo® 3D Reagent (Promega, G968B).
The results of cell growth suppression test on representative compounds of the present disclosure are listed in the following table based on the ranking of I, IT, III, IV, and V (1000 nM<I, 1000 nM>TI>300 nM, 300 nM>III>100 nM, 100 nMV>IV>30 nM, 30 nM>V).

CHK1, sequence (O14757 whole entry): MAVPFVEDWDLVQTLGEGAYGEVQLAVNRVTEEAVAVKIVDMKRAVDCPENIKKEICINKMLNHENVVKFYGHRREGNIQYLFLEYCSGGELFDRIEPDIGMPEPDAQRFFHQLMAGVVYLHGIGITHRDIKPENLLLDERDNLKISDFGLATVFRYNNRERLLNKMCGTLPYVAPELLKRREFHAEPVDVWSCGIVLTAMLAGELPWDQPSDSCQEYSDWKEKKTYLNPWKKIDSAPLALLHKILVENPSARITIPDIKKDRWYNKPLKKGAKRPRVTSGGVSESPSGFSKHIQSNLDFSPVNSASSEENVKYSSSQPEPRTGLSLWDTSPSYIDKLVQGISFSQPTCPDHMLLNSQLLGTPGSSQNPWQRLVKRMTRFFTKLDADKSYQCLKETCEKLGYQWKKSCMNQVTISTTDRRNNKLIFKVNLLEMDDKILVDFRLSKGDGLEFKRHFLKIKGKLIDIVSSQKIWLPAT
hERG current, sequence (Q12809 whole entry): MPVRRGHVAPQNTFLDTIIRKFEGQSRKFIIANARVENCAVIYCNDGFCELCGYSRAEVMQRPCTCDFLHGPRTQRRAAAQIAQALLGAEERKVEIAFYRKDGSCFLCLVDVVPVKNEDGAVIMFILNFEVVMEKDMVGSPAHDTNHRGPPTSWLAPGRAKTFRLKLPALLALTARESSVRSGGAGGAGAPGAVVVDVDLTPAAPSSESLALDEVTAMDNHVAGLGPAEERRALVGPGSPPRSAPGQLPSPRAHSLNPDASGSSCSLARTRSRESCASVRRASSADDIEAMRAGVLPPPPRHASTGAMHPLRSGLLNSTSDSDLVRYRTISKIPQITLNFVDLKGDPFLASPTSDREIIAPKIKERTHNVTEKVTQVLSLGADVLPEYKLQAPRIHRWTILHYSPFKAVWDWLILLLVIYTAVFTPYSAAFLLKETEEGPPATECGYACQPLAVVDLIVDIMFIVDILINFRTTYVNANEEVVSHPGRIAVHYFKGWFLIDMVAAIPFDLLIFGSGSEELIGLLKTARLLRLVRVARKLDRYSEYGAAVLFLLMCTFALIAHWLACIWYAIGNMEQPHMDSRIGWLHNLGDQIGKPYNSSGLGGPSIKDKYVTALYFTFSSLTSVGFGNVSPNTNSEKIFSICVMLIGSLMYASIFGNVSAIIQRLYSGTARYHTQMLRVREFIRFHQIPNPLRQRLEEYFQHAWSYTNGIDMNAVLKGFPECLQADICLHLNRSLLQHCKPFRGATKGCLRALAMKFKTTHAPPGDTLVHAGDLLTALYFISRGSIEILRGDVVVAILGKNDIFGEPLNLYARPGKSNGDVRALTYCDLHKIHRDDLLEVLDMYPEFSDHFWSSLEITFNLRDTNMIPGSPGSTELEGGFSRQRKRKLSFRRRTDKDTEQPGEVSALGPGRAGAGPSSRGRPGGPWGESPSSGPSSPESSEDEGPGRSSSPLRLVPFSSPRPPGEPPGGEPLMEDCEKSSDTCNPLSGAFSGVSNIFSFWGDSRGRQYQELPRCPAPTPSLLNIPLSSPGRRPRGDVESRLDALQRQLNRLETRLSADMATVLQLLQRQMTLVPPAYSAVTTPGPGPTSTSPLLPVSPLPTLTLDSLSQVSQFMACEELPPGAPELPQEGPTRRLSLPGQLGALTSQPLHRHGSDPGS
Method for CHK1: IMAP TR-FRET Screening Express Kit (R8160) was obtained from Molecular Devices. […] FAM-PKAtide (R7255, Molecular Devices) and FAM-Phospho-PKAtide (R7304, Molecular Devices) were admixed after dilution, and calibration standard systems for phosphorylation levels from 0 to 100% were created. 5 μL of a compound dissolved in a 0.4% DMSO solution was added to a 384 well plate. A compound study group to which 5 μL of each of CHK1, CHK1tide, and ATP was added, and a standard group to which 20 μL of standard was added were created, and subjected to a kinase reaction for 3 hours at 30° C. Subsequently, 60 μL of Binding Reagent (80% Buffer A, 20% Buffer B, 1:600 Binding Reagent, 1:400 Tb-Donor) was added for a binding reaction for 2 hours at room temperature.
Method for hERG current: The test compounds were added to cultured hERG (human Ether-a-go-go Related Gene) gene stably expressing CHO cell line cells to achieve 0.27 to 100 μM.

Consider `COc1cncc(OC[C@H](F)CN)c1-c1cc(Nc2cnc(C#N)cn2)n[nH]1` [Example 30, 5-[(5-{3-[(2R)-3-amino-2-fluoropropoxy]-5-methoxypyridin-4-yl}-1H-pyrazol-3-yl)amino]pyrazine-2-carbonitrile], for which, on CHK1, the IC50 is 0.00026 µM and the “effect of suppressing CHK1 activity compared with prexasertib” value is “more potent effect of suppressing CHK1 activity than prexasertib”. In addition, the hERG/CHK1 at hERG current (IC50 of hERG divided by IC50 of CHK1 inhibition) amounted to 40000. Besides, the IC50 on hERG current (read-out: hERG inhibition IC50, hERG expressing CHO cells) was found to be 10.4 µM. The “Factor of change in IC50 value” at CYP3A4 is reported as “Not Detected”. In addition, the “cell growth suppression effect compared with prexasertib” value in the data set with ES-2 cells was “excellent cell growth suppression effect that is equivalent to that of prexasertib”.

For the origin of these results see patent publication US20250352541A1, “THERAPEUTIC FOR CANCER REFRACTORY TO IMMUNE CHECKPOINT INHIBITOR” (Sumitomo Pharma Co., Ltd., priority 2022, published 2025).
